Data: PubChem BioAssay (NCI)
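All cell lines were grown in 96-well plates and treated with compound for 48 hours. At the GI50, growth is halved. Definition used: TGI = concentration required for complete inhibition of growth.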

How the values were obtained:
Assay in all cases: NCI anticancer screen, dose series, 48 h
786-0 renal = tested on: 786-0 renal
A498 renal = tested on: A498 renal
A549 NSCLC = tested on: A549 NSCLC
ACHN renal = tested on: ACHN renal
BT-549 breast = tested on: BT-549 breast
CAKI-1 renal = tested on: CAKI-1 renal
COLO 205 colon = tested on: COLO 205 colon
DU-145 prostate = tested on: DU-145 prostate
EKVX NSCLC = tested on: EKVX NSCLC
HCC-2998 colon = tested on: HCC-2998 colon
HCT-116 colon = tested on: HCT-116 colon
HCT-15 colon = tested on: HCT-15 colon
HL-60(TB) leukemia = tested on: HL-60(TB) leukemia
HOP-62 NSCLC = tested on: HOP-62 NSCLC
HOP-92 NSCLC = tested on: HOP-92 NSCLC
HS 578T breast = tested on: HS 578T breast
HT29 colon = tested on: HT29 colon
IGROV1 ovarian = tested on: IGROV1 ovarian
K-562 leukemia = tested on: K-562 leukemia
KM12 colon = tested on: KM12 colon
LOX IMVI melanoma = tested on: LOX IMVI melanoma
M14 melanoma = tested on: M14 melanoma
MALME-3M melanoma = tested on: MALME-3M melanoma
MCF7 breast = tested on: MCF7 breast
MDA-MB-231 breast = tested on: MDA-MB-231 breast
MDA-MB-435 = tested on: MDA-MB-435
MOLT-4 leukemia = tested on: MOLT-4 leukemia
NCI-H226 lung = tested on: NCI-H226 lung

## Cc1cc2nc3c4cc(Cl)ccc4n(CC(=O)NCCN(C)C)c3nc2cc1C
786-0 renal
  GI50: 1.57 µM
  TGI: 3.1 µM
A498 renal
  GI50: 18 µM
  TGI: 31.8 µM
A549 NSCLC
  GI50: 2.02 µM
  TGI: 5.02 µM
ACHN renal
  GI50: 1.5 µM
  TGI: 2.82 µM
BT-549 breast
  GI50: 13.6 µM
  TGI: 26.8 µM
CAKI-1 renal
  GI50: 3.46 µM
  TGI: 18.1 µM
COLO 205 colon
  GI50: 75.6 µM
  TGI: > 100 µM
DU-145 prostate
  GI50: 13.7 µM
  TGI: 26.6 µM
EKVX NSCLC
  GI50: 10.6 µM
  TGI: 23.3 µM
HCC-2998 colon
  GI50: 11.7 µM
  TGI: 23.9 µM
HCT-116 colon
  GI50: 1.73 µM
  TGI: 3.29 µM
HCT-15 colon
  GI50: 1.86 µM
  TGI: 4.01 µM
HL-60(TB) leukemia
  GI50: 1.91 µM
  TGI: 4.57 µM
HOP-62 NSCLC
  GI50: 11.5 µM
  TGI: 26.4 µM
HOP-92 NSCLC
  GI50: 2.2 µM
  TGI: 22.8 µM
HS 578T breast
  GI50: 13.5 µM
  TGI: 35.5 µM
HT29 colon
  GI50: 1.67 µM
  TGI: 3.18 µM
IGROV1 ovarian
  GI50: 12.7 µM
  TGI: 26.5 µM
K-562 leukemia
  GI50: 2.28 µM
  TGI: 7.36 µM
KM12 colon
  GI50: > 100 µM
  TGI: > 100 µM
LOX IMVI melanoma
  GI50: 1.19 µM
  TGI: 2.49 µM
M14 melanoma
  GI50: 1.64 µM
  TGI: 3.11 µM
MALME-3M melanoma
  GI50: 1.69 µM
  TGI: 3.2 µM
MCF7 breast
  GI50: 1.48 µM
  TGI: 3.15 µM
MDA-MB-231 breast
  GI50: 2.25 µM
  TGI: 6.58 µM
MDA-MB-435
  GI50: 1.9 µM
  TGI: 3.77 µM
MOLT-4 leukemia
  GI50: 2.2 µM
  TGI: 6.18 µM
NCI-H226 lung
  GI50: 9.43 µM
